Test results taken from patent US10934298B2, “Substituted pyrazolo[1,5-a]pyrimidines for the treatment of medical disorders” (BIAL—BioTech Investments, Inc., priority 2016, dated 2021).

Biological target: T1, glucocerebrosidase (Gcase) (Homo sapiens, UniProt P04062)
T1 construct: micellar solution containing 10 nM GCase and 100 nM saposin C
T1 sequence (P04062 40-536): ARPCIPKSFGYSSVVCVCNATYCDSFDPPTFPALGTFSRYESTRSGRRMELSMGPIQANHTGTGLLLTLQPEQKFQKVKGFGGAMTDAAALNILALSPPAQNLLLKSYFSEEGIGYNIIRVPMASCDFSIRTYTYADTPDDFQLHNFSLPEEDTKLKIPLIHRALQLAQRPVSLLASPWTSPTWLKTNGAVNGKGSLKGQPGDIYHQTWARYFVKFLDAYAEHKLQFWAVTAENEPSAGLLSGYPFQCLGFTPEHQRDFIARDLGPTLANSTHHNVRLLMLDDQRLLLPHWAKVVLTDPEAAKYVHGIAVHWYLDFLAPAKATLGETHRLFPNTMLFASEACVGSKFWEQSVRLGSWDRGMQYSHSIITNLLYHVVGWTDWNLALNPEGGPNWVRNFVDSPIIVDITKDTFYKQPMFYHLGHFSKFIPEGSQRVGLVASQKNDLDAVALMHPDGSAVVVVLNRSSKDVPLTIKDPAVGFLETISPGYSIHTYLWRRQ
Test: Glucocerebrosidase (Gcase) activation assay with 4-methylumbelliferyl-beta-D-glucopyranoside substrate, saposin C and phosphatidylserine/triton micelles, fluorescence readout
Assay type: biochemical
Description: The ability of exemplary compounds to activate glucocerebrosidase (Gcase) was measured.
A 484 μL aliquot of a 1.0 mg/mL solution of phosphatidylserine (PS) (Sigma P7769) in chloroform was evaporated under a stream of nitrogen for 1 hour. The lipid film was dissolved over 4 minutes of vigorous vortexing in 40 mL of 176 mM K2HPO4/50 mM citric acid (pH 4.7) containing 7.5 μL of triton X-100, resulting in a mixed micellar preparation with a composition of 0.32 mM triton and 0.37 mol % PS. 4-Methylumbelliferyl-beta-D-glucopyranoside (ACROS-337025000) was dissolved in the micellar solution to a final concentration of 2 mM for use as the reaction substrate.
Test compounds were diluted to the desired concentrations with dimethylsulfoxide (DMSO) from 10 mM stocks, and 0.41 μL of the DMSO compound mixture was added to 100 μL of micellar solution containing 10 nM GCase and 100 nM saposin C (Enzo ALX-201-262-C050). Pre-incubation was allowed to occur for 30 minutes at room temperature, after which the reaction was initiated by combining 25 μL of substrate solution with 25 μL of compound/GCase/saposin mixture. The reaction proceeded for 15 minutes at room temperature and was stopped by adding 150 μL of 1M glycine, pH 12.5. The endpoint of the reaction was monitored by measuring fluorescence intensity (excitation: 365 nm; emission: 440 nm) on a SpectraMax i3 instrument (Molecular Devices). Test compounds were screened at 1.0 and 0.1 μM final concentration, and subsequent 8-point dose response curves were obtained using 3-fold dilutions from a maximum final concentration of 5 μM.

SMILES | Percent Gcase Activation, 0.1 μM Test Compound (0.1 μM test compound, Table 3A) | Percent Gcase Activation, 1 μM Test Compound (1 μM test compound, Table 3A) | Percent Gcase Activation, 0.1 μM Test Compound (test compound at 0.1 μM) | Percent Gcase Activation, 1 μM Test Compound (test compound at 1.0 μM)
Cc1cc(-c2cccc(Cl)c2)nc2c(C(=O)N[C@@H](C)C3CC3)cnn12 [III-65] | *** (greater than 20% Gcase activation) | +++ (Gcase activation greater than 60%) |  | 
Cc1cc(N2CCCC(F)(F)C2)nc2c(C(=O)NC(C3CC3)C(F)(F)F)cnn12 (centres unmarked) [III-66] | *** (greater than 20% Gcase activation) | +++ (Gcase activation greater than 60%) |  | 
Cc1cc(N2CCC(F)(F)C2)nc2c(C(=O)NC(C3CC3)C(F)(F)F)cnn12 (centres unmarked) [III-67] | *** (greater than 20% Gcase activation) | +++ (Gcase activation greater than 60%) |  | 
Cc1cc(C(F)(F)F)nc2c(C(=O)NC(C)(C)C3CC3)cnn12 [III-68] | * (less than 10% Gcase activation) | + (less than 30% Gcase activation) |  | 
C#CC(C)(C)NC(=O)c1cnn2c(C)cc(-c3cccc(OC)c3)nc12 [III-69] | *** (greater than 20% Gcase activation) | +++ (Gcase activation greater than 60%) |  | 
Cc1cc(-c2cccc(C#N)c2)nc2c(C(=O)N[C@@H](C)C3CC3)cnn12 [III-70] | *** (greater than 20% Gcase activation) | +++ (Gcase activation greater than 60%) |  | 
Cc1cc(-c2cccc(C#N)c2)nc2c(C(=O)NC(C)(C)C3CC3)cnn12 [III-71] | *** (greater than 20% Gcase activation) | +++ (Gcase activation greater than 60%) |  | 
Cc1cc(-c2cccc(C#N)c2)nc2c(C(=O)NC(C3CC3)C(F)(F)F)cnn12 (centres unmarked) [III-72] | *** (greater than 20% Gcase activation) | +++ (Gcase activation greater than 60%) |  | 
Cc1cc(-c2cccc(C(N)=O)c2)nc2c(C(=O)NC(C3CC3)C(F)(F)F)cnn12 (centres unmarked) [III-73] | *** (greater than 20% Gcase activation) | +++ (Gcase activation greater than 60%) |  | 
COCc1cc(-c2cccc(F)c2)nc2c(C(=O)NC(C)(C)C3CC3)cnn12 [III-74] | ** (Gcase activation in the range of 10% up to 20%) | +++ (Gcase activation greater than 60%) |  | 
C#CC(C)(C)NC(=O)c1cnn2c(C)cc(-c3cccc(F)c3)nc12 [III-75] | *** (greater than 20% Gcase activation) | +++ (Gcase activation greater than 60%) |  | 
CCOc1cccc(-c2cc(C)n3ncc(C(=O)NC(C)C(F)(F)F)c3n2)c1 (centres unmarked) [III-76] | *** (greater than 20% Gcase activation) | +++ (Gcase activation greater than 60%) |  | 
Cc1cc(-c2cccc(OC3CC3)c2)nc2c(C(=O)NC(C)C(F)(F)F)cnn12 (centres unmarked) [III-77] | *** (greater than 20% Gcase activation) | +++ (Gcase activation greater than 60%) |  | 
Cc1cc(NC2CC2)nc2c(C(=O)NC(C3CC3)C3CC3)cnn12 [III-78] | *** (greater than 20% Gcase activation) | +++ (Gcase activation greater than 60%) |  | 
COCc1cc(-c2cccc(OC)c2)nc2c(C(=O)NC(C)(C)C3CC3)cnn12 [III-79] | *** (greater than 20% Gcase activation) | +++ (Gcase activation greater than 60%) |  | 
Cc1cc(-c2cccc(F)c2)nc2c(C(=O)NC(C)(C)C(F)(F)F)cnn12 [III-80] | ** (Gcase activation in the range of 10% up to 20%) | +++ (Gcase activation greater than 60%) |  | 

SMILES | Percent Gcase Activation, 0.1 μM Test Compound (0.1 μM test compound, Table 3A) | Percent Gcase Activation, 1 μM Test Compound (1 μM test compound, Table 3A) | Percent Gcase Activation, 0.1 μM Test Compound (test compound at 0.1 μM) | Percent Gcase Activation, 1 μM Test Compound (test compound at 1.0 μM)
C#CC(C)(C)NC(=O)c1cnn2c(C)cc(-c3cccc(Cl)c3)nc12 [III-81] | *** (greater than 20% Gcase activation) | +++ (Gcase activation greater than 60%) |  | 
C#CC(C)(C)NC(=O)c1cnn2c(C)cc(-c3cccc(OC4CC4)c3)nc12 [III-82] | *** (greater than 20% Gcase activation) | +++ (Gcase activation greater than 60%) |  | 
Cc1cc(-c2ccc3ocnc3c2)nc2c(C(=O)NC(C3CC3)C(F)(F)F)cnn12 (centres unmarked) [III-83] | *** (greater than 20% Gcase activation) | +++ (Gcase activation greater than 60%) |  | 
Cc1cc(-c2ccc(F)nc2)nc2c(C(=O)NC(C3CC3)C(F)(F)F)cnn12 (centres unmarked) [III-84] | *** (greater than 20% Gcase activation) | +++ (Gcase activation greater than 60%) |  | 
Cc1cc(-c2cccnc2F)nc2c(C(=O)NC(C3CC3)C(F)(F)F)cnn12 (centres unmarked) [III-85] | *** (greater than 20% Gcase activation) | +++ (Gcase activation greater than 60%) |  | 
Cc1cc(-c2ccc(F)cc2)nc2c(C(=O)N[C@H](C)C3CC3)cnn12 [III-86] |  |  | ** (Gcase activation in the range of 10% up to 20%) | +++ (Gcase activation greater than 60%)
Cc1cc(-c2cccnc2)nc2c(C(=O)N[C@H](C)C3CC3)cnn12 [III-87] |  |  | * (less than 10% Gcase activation) | + (less than 30% Gcase activation)
Cc1cc(-c2cccnc2)nc2c(C(=O)N[C@H](C3CC3)C(F)(F)F)cnn12 [III-88] |  |  | *** (greater than 20% Gcase activation) | +++ (Gcase activation greater than 60%)
Cc1cc(-c2cccnc2)nc2c(C(=O)N[C@@H](C3CC3)C(F)(F)F)cnn12 [III-89] |  |  | ** (Gcase activation in the range of 10% up to 20%) | +++ (Gcase activation greater than 60%)
COc1cccc(-c2cc(C)n3ncc(C(=O)N[C@H](C)C(F)(F)F)c3n2)c1 [III-90] |  |  | *** (greater than 20% Gcase activation) | +++ (Gcase activation greater than 60%)
COc1cccc(-c2cc(C)n3ncc(C(=O)N[C@@H](C)C(F)(F)F)c3n2)c1 [III-91] |  |  | *** (greater than 20% Gcase activation) | +++ (Gcase activation greater than 60%)
Cc1cc(-c2cccc(F)c2)nc2c(C(=O)N[C@H](C)C3CC3)cnn12 [III-92] |  |  | *** (greater than 20% Gcase activation) | +++ (Gcase activation greater than 60%)
Cc1cc(-c2cccc(C#N)c2)nc2c(C(=O)N[C@H](C)C3CC3)cnn12 [III-93] |  |  | ** (Gcase activation in the range of 10% up to 20%) | +++ (Gcase activation greater than 60%)
Cc1cc(N2CCCC(F)(F)C2)nc2c(C(=O)N[C@H](C3CC3)C(F)(F)F)cnn12 [III-94] |  |  | *** (greater than 20% Gcase activation) | +++ (Gcase activation greater than 60%)
Cc1cc(N2CCCC(F)(F)C2)nc2c(C(=O)N[C@@H](C3CC3)C(F)(F)F)cnn12 [III-95] |  |  | *** (greater than 20% Gcase activation) | +++ (Gcase activation greater than 60%)
